{
  "source": "patent US9738591B2",
  "about": "“Antimicrobial compounds” (priority 2009, dated 2017)",
  "format_in_all_cases": "cell-based",
  "key": {"sheep erythrocytes": {"tested_on": "sheep erythrocytes", "experiment": "Haemolysis of sheep erythrocytes", "conditions": "for Average (SD) % haemolysis (n = 2): 2% sheep erythrocytes, 37° C., 2 h", "procedure": "As an indicator of toxicity to human cells, haemolysis experiments on sheep erythrocytes were undertaken with TSB007.\n10 mg/ml stock solution of TSB007 was prepared in 100% DMSO. Master stock solutions of TSB007 (10 mg/ml) were made by dissolving 20 mg dehydrated compound in 2 ml 100% DMSO. They were stored in foil-covered glass bottles at −20° C. Master stocks stored in this way retained full antimicrobial activity for a minimum period of 6 weeks (results not shown).\nSerial, 10-fold dilutions were performed in PBS to make solutions of 1000, 100, 10 and 1 mg/L of TSB007. In microcentrifuge tubes, 500 μl of each dilution was combined with 480 μl PBS and 20 μl washed sheep erythrocytes (100%) so that the final concentration of erythrocytes was 2% and the final concentrations of compound were 500, 50, 5 and 0.5 mg/L. Dilutions of DMSO without. TSB007 were prepared and tested as above to check for haemolysis due to DMSO. A 100% haemolysis control was prepared with 980 μl water and 20 μl erythrocyte suspension. A negative control was prepared with 980 μl PBS and 20 μl erythrocyte suspension. Dilutions and controls were prepared and tested in duplicate.\nTubes were incubated at 37° C. for 2 h on a rocker then centrifuged at 12 000 g for 5 mins. The OD540 of the supernatant was determined using 100 μl volumes transferred to a microtitre tray. % haemolysis was determined by blanking the OD against that of the negative control and presenting the resulting OD as a proportion of the OD of the positive control (blanked with water)."}, "[1]": {"tested_on": "Clostridium perfringens ATCC 2734", "conditions": "10 mg/ml, 20 μl, BA - prereduced, anaerobe"}, "[2]": {"tested_on": "Clostridium difficile NCTC 43593", "experiment": "Disk diffusion", "conditions": "10 mg/ml, 20 μl, BA - prereduced, anaerobe", "procedure": "(§1) Plates were incubated at 35° C."}, "[3]": {"tested_on": "Shigella flexneri NCTC 8192", "experiment": "Disk diffusion", "conditions": "10 mg/ml, 20 μl; repeat", "procedure": "as §1"}, "[4]": {"tested_on": "S. epidermidis ATCC 12228", "experiment": "MIC and MBC by broth microdilution", "conditions": "Staphylococcus epidermidis, ATCC12228, CA-MHB, two independent replicates"}},
  "data": [
    {"molecule": "O=C(O)c1ccc(/C=C/c2cc(/C=C/c3ccc(C(=O)O)cc3)cc(/C=C/c3ccc(C(=O)O)cc3)c2)cc1", "note": "[TSB007]", "values": [
      {"measurement": "Average (SD) % haemolysis (n = 2)", "setting": "sheep erythrocytes; 0.5 mg/L", "result": "−2.316 (0.695) %"},
      {"measurement": "Average (SD) % haemolysis (n = 2)", "setting": "sheep erythrocytes; 5 mg/L", "result": "2.175 (0.099) %"},
      {"measurement": "Average (SD) % haemolysis (n = 2)", "setting": "sheep erythrocytes; 50 mg/L", "result": "2.316 (0.099) %"},
      {"measurement": "haemolytic activity", "setting": "sheep erythrocytes; 0.5-500 mg/L", "result": "very low"},
      {"measurement": "Average (SD) % haemolysis (n = 2)", "setting": "sheep erythrocytes; 500 mg/L", "result": "5.053 (0.595) %"},
      {"measurement": "Zone diameters, 24 h TSB007", "setting": "[1]; 24 h", "result": 12, "unit": "trim"},
      {"measurement": "Zone diameters, 48 h TSB007", "setting": "[1]; 48 h", "result": 12, "unit": "trim"},
      {"measurement": "Zone diameters, 24 h TSB007", "setting": "[2]; 24 h", "result": 10, "unit": "trim"},
      {"measurement": "Zone diameters, 48 h TSB007", "setting": "[2]; 48 h", "result": 10, "unit": "trim"},
      {"measurement": "Zone diameters, Repeat Results", "setting": "[3]", "result": 8.5, "unit": "trim"},
      {"measurement": "MIC", "setting": "[4]; 35° C., 24 h", "result": "2 to 4", "unit": "µg/mL"},
      {"measurement": "MBC", "setting": "[4]", "result": "> 32", "unit": "µg/mL"}
    ]}
  ]
}
